# Results reported in patent publication US11911346B2, “Orally administrated therapeutic for treating mild cognitive impairment (MCI) and improving human cognitive function” (BrainCare LLC, priority 2021, dated 2024).
# Values joined by “and” are separate entries in the source; they are usually repeats but may differ in a detail not shown here. Equal values may be shown once.
# Experiments:
# [1] = tested on: concentration and response inhibition of participants with Subjective Cognitive Decline; assay: Cambridge Brain Sciences (CBS) Double Trouble test; type: in vivo, human; details: for Double Trouble actual score: Week 4, normal 87-113
# From the text: (§1) The Cambridge Brain Sciences (CBS) included a battery of four tests to measure various aspects of cognition and that affected different regions of the brain. Normal scores for each test ranged from 87 to 113.
# The second test is Double Trouble and addresses concentration and response inhibition. It can detect early Alzheimer's disease and age-related cognitive decline. It has a high reproducibility and is useful in distinguishing impaired and unimpaired aging. The parts of the brain involved include the right prefrontal cortex and dorsolateral region.
# (§2) The data are presented as mean±standard deviation (S.D.) at baseline, week 4, and week 8. Results from the Cognitive Failures Questionnaire and Cambridge Brain Sciences are compared using the Student's t-test in each intervention group between baseline and week 4 and between baseline and week 8. Significance was defined as p≤0.05. At each time point, the percentage change was compared with the values at baseline. This calculation was only obtained from the means between each time point, and the statistical analysis was not made on these percentage changes.
# (§3) For Cambridge Brain Sciences tests, some responses were flagged as being a highly unusual response (found in less than 1% of Cambridge Brain Sciences normative database). […] These scores were considered to be invalid and excluded from the final analysis. For each participant, the combined mean scores of all four CBS tests were summed for at baseline and at week 8. The participants were then grouped according to these mean baseline score of all four tests as: below average (less than or equal to 100) and average and above (greater than 100).
# [2] = tested on: salivary testosterone; details: olfactory exposure to 3% BCP over 20 minutes, women with low libido; cited from earlier work
# [3] = tested on: acute or chronic pain; details: 60 mg of BCP daily, by day 4; 31 participants; cited from earlier work
# [4] = tested on: cognitive function of participants with Subjective Cognitive Decline; assay: Cambridge Brain Sciences (CBS) battery, combined means of all four tests; type: in vivo, human
# From the text: as §1, §3
# [5] = tested on: visuospatial and working memory of participants with Subjective Cognitive Decline; assay: Cambridge Brain Sciences (CBS) Monkey Ladder test; type: in vivo, human; details: for Monkey Ladder actual score: Week 4, normal 87-113
# From the text: as §1
# The third test is the Monkey Ladder, which relates visuospatial and working memory. The test can detect early Alzheimer's disease, non-Alzheimer's dementia, and age-related cognitive decline. The parts of the brain involved included: the mid-dorsolateral prefrontal cortex, premotor cortex, and posterior parietal cortex.
# as §2, §3
# [6] = tested on: reasoning and planning of participants with Subjective Cognitive Decline; assay: Cambridge Brain Sciences (CBS) Spatial Planning test; type: in vivo, human
# From the text: as §1
# The first test is the Spatial Planning test, which addresses reasoning and planning. It tests for non-Alzheimer's dementia but has a high correlation with aging. It has a high reproducibility and is useful to distinguish impaired and unimpaired populations. The parts of the brain implicated include: frontal lobe, mid-dorsolateral frontal cortex, caudate nucleus, thalamus, lateral premotor, and anterior cingulate.
# as §2, §3
# [7] = one capsule daily (90 mg BCP), N=25
# [8] = one capsule daily (90 mg BCP), Week 8, over 8 weeks
# [9] = two capsules daily (180 mg BCP), N=22
# [10] = two capsules daily (180 mg BCP)
# [11] = one capsule daily (90 mg BCP), all participants
# [12] = one capsule daily (90 mg BCP), baseline mean greater than 100
# [13] = one capsule daily (90 mg BCP), baseline mean less than or equal to 100
# [14] = two capsules daily (180 mg BCP), all participants
# [15] = two capsules daily (180 mg BCP), baseline mean greater than 100
# [16] = two capsules daily (180 mg BCP), baseline mean less than or equal to 100
# [17] = one capsule daily (90 mg BCP), N=23
# [18] = two capsules daily (180 mg BCP), N=25
# [19] = one capsule daily (90 mg BCP), N=26
smiles,measurement,setting,value
"C=C1CC/C=C(\C)CC[C@@H]2[C@@H]1CC2(C)C [BCP, beta-caryophyllene]",Double Trouble: number of participants improved between baseline and week 8,[1]; [7],15
same,Double Trouble: number of participants with no change between baseline and week 8,[1]; [7],0
same,Double Trouble: number of participants worsened between baseline and week 8,[1]; [7],9
same,Double Trouble: % of participants with sub-optimal score,"[1]; one capsule daily (90 mg BCP), week 8 (56% at baseline)",44%
same,Double Trouble actual score,[1]; one capsule daily (90 mg BCP),93 ± 15
same,Double Trouble percentage change,[1]; [8],+5.3%
same,Double Trouble: % of participants with no change between baseline and week 8,[1]; [9],(14%)
same,Double Trouble: number of participants improved between baseline and week 8,[1]; [9],14
same,Double Trouble: number of participants with no change between baseline and week 8,[1]; [9],3
same,Double Trouble: number of participants worsened between baseline and week 8,[1]; [9],5
same,Double Trouble actual score,[1]; [10],97.3 ± 15.2
same,Salivary testosterone vs. control period,[2],increased
same,% of participants reporting mitigation of pain,[3],60%
same,% of subjects with sub-optimal baseline score (less than 87) who improved to a normal score on any test,"[4]; one capsule daily (90 mg BCP), during the 8-week study",31%
same,Mean of four tests scores at week 8,[4]; [11],99.8
same,"Percentage change (mean ± S.D.) of mean of four tests scores, baseline to week 8",[4]; [11],3.6±10.0%
same,Mean of four tests scores at week 8,[4]; [12],108.7
same,"Percentage change (mean ± S.D.) of mean of four tests scores, baseline to week 8",[4]; [12],−0.7±9.4%
same,Mean of four tests scores at week 8,[4]; [13],96.8
same,"Percentage change (mean ± S.D.) of mean of four tests scores, baseline to week 8",[4]; [13],5.0±9.8% and 5%
same,Mean of four tests scores at week 8,[4]; [14],101.0
same,"Percentage change (mean ± S.D.) of mean of four tests scores, baseline to week 8",[4]; [14],4.6±12.1%
same,Mean of four tests scores at week 8,[4]; [15],104.2
same,"Percentage change (mean ± S.D.) of mean of four tests scores, baseline to week 8",[4]; [15],−1.5% and −1.5 ± 7.5%
same,Mean of four tests scores at week 8,[4]; [16],98.8
same,"Percentage change (mean ± S.D.) of mean of four tests scores, baseline to week 8",[4]; [16],9.0±12.9% and 9%
same,Monkey Ladder: % of participants with no change between baseline and week 8,[5]; [17],(4%)
same,Monkey Ladder: number of participants improved between baseline and week 8,[5]; [17],16
same,Monkey Ladder: number of participants with no change between baseline and week 8,[5]; [17],1
same,Monkey Ladder: number of participants worsened between baseline and week 8,[5]; [17],6
same,Monkey Ladder actual score,[5]; one capsule daily (90 mg BCP),103.8 ± 6.7
same,Monkey Ladder percentage change,[5]; [8],+2.5%
same,Monkey Ladder: % of participants with no change between baseline and week 8,[5]; [18],(28%)
same,Monkey Ladder: number of participants improved between baseline and week 8,[5]; [18],17
same,Monkey Ladder: number of participants with no change between baseline and week 8,[5]; [18],7
same,Monkey Ladder: number of participants worsened between baseline and week 8,[5]; [18],1
same,Monkey Ladder actual score,[5]; [10],103.7 ± 8.1
same,Spatial Planning: % of participants with no change between baseline and week 8,[6]; [19],(8%)
same,Spatial Planning: number of participants improved between baseline and week 8,[6]; [19],19
same,Spatial Planning: number of participants with no change between baseline and week 8,[6]; [19],2
same,Spatial Planning: number of participants worsened between baseline and week 8,[6]; [19],5
same,Spatial Planning actual score,"[6]; one capsule daily (90 mg BCP), Week 4, normal 87-113",104 ± 9
same,Spatial Planning percentage change,[6]; [8],+2.3%
same,Spatial Planning: % of participants with no change between baseline and week 8,[6]; [18],(8%)
same,Spatial Planning: number of participants improved between baseline and week 8,[6]; [18],18
same,Spatial Planning: number of participants with no change between baseline and week 8,[6]; [18],2
same,Spatial Planning: number of participants worsened between baseline and week 8,[6]; [18],5
